Reference: patent publication US12521363B2, “Use of levodopa, carbidopa and entacapone for treating Parkinson's disease” (ORION CORPORATION, priority 2010, dated 2026)
One block for each compound: values may come before it.

How the values were obtained:
[1] = Repeated-dose levodopa/carbidopa pharmacokinetics with and without entacapone, human subjects (Example 1); type: in vivo; details: for levodopa pharmacokinetics, effect of increasing the carbidopa dose: repeated dosing 4 times a day, levodopa 100 mg, carbidopa 25/50/100 mg
Text: The primary objective of the study was to evaluate the effects of different carbidopa dose levels on the pharmacokinetics (PKs) of levodopa with and without concomitant administration of entacapone. This was the first study to evaluate the effect of the combinations in a repeated dose setting in human subjects. Pharmacokinetics of levodopa in the presence of AADC and COMT inhibition with substances like carbidopa and entacapone is complex and difficult to model based on single dose PK data in humans, or animal models. However, it has been shown earlier that levodopa PK in healthy subjects is similar to that seen in PD patients and therefore the results of this study indicate how the levodopa PK will be in PD patients and how the levodopa PK will predict symptom control of PD. A total of 25 human subjects were enrolled into the study. The study subjects were randomly allocated to receive either 200 mg of entacapone or corresponding placebo in each treatment period. Entacapone, or a corresponding placebo, was administered concomitantly with 100 mg of levodopa and 25 mg of carbidopa at 3.5-hour intervals 4 times a day. In addition, the study subjects received in a randomised order in each treatment period one of the additional dose levels (0 mg, 25 mg, and 75 mg) of carbidopa. There were 3 treatment periods, one for each carbidopa dose level and for the same subjects with cross-over design so that each subject participated for the 3 periods. There were two groups with the same carbidopa doses, one group with and one group without concomitant entacapone administration. By this study design, the effect of entacapone on carbidopa dose escalation and subsequently to levodopa PK could be assessed in repeated dose setting in humans. Dose combinations were: • A: Entacapone 200 mg+levodopa 100 mg+carbidopa 25 mg • B: Entacapone 200 mg+levodopa 100 mg+carbidopa 50 mg • C: Entacapone 200 mg+levodopa 100 mg+carbidopa 100 mg • E: Levodopa 100 mg+carbidopa 25 mg • F: Levodopa 100 mg+carbidopa 50 mg • G: Levodopa 100 mg+carbidopa 100 mg After the first and last dose of the day, the whole levodopa and carbidopa plasma profiles were assessed and after the second and third dose only the minimum concentrations (just before the next dose at 3.5 and at 7.0 hours) were assessed.

[2] = Repeated-dose levodopa pharmacokinetics with increasing carbidopa, entacapone dose levels or tolcapone (Example 2); type: in vivo, human; details: repeated dosing, increased COMT-inhibition by higher entacapone dose or by tolcapone
Text: The primary objective of the study was to evaluate the effects of different carbidopa dose levels on the pharmacokinetics (PKs) of levodopa with concomitant administration of different entacapone dose levels and with the moderately potent COMT inhibitor tolcapone.
The study subjects were randomly allocated to receive either increasing doses of entacapone or standard dose of tolcapone combined with increasing doses of carbidopa in each treatment period, a total of 12 different dose combinations. Entacapone was administered concomitantly with 100 mg of levodopa and 25 mg of carbidopa at 3.5-hour intervals 4 times a day and tolcapone 3 times a day. In addition, the study subjects received increasing dose levels of carbidopa.
There were three groups, one for each carbidopa dose level, and 4 treatment periods in each group, one for each entacapone dose level or for tolcapone and for the same subjects with cross-over design so that one subject participated for the 4 periods. By this study design the effect of entacapone and tolcapone on carbidopa dose escalation and subsequently to levodopa PK could be assessed in repeated dose setting in humans.
After each levodopa dose of the day, the levodopa plasma profile was assessed. The levodopa plasma concentrations after entacapone dose escalation and tolcapone standard dose and with increased carbidopa dose are given in FIG. 3.

[3] = cited from earlier work
[4] = increased carbidopa dose in the presence of a COMT inhibitor

- accumulation of carbidopa concentrations in plasma ([1]; increased carbidopa dose, repeated dosing, towards the end of the dosing period): no accumulation
Structure (SMILES): C[C@@](Cc1ccc(O)c(O)c1)(NN)C(=O)O [carbidopa, (−)-L-alpha-hydrazino-alpha-methyl-beta-(3,4-dihydroxybenzene)propionic acid]

- levodopa pharmacokinetics, effect of increasing the carbidopa dose [2]: significantly improve
- AUC of levodopa [1, 4]: significantly increased
- Cmin of levodopa [1, 4]: significantly increased
- maximum concentrations of levodopa ([1]; increased carbidopa dose with COMT inhibitor): not clinically significantly increased
- levodopa pharmacokinetics, effect of increasing the carbidopa dose ([1]; with entacapone 200 mg): significantly improve
- levodopa pharmacokinetics, effect of increasing the carbidopa dose ([1]; without entacapone): did not have such an effect
Structure (SMILES): N[C@@H](Cc1ccc(O)c(O)c1)C(=O)O [levodopa, (−)-L-alpha-amino-beta-(3,4-dihydroxybenzene)propanoic acid]

Structure (SMILES): CCN(CC)C(=O)/C(C#N)=C/c1cc(O)c(O)c([N+](=O)[O-])c1 [entacapone, (E)-2-cyano-3-(3,4-dihydroxy-5-nitrophenyl)-N-diethyl-2 propenamide]
- water solubility ([3]; water): poor solubility

Structure (SMILES): Cc1c(Cl)c(C)[n+]([O-])c(Cl)c1-c1noc(-c2cc(O)c(O)c([N+](=O)[O-])c2)n1 [BIA 9-1067, 5-[3-(2,5-dichloro-4,6-dimethyl-1-oxypyridin-3-yl)-[1,2,4]oxadiazol-5-yl]-3-nitrobenzene-1,2-diol]
- solubility [3]: poorly soluble
